Reference: a melting point compilation (Tetko et al.; mined from patent text by program, amines drawn as free bases though some values may be those of a salt)

SMILES | melting point
CCOC(=O)NCc1cccc(C(=O)OC)c1C(=O)OC | 187 to 189 °C
CC(=O)c1cccc(C)c1NC(=O)CBr | 97 to 100 °C
COc1cc2ncc(C(N)=O)c(Nc3cccc(Br)c3)c2cc1OC | 239 to 242 °C
CCOC(=O)c1cc(CC)c2ccc(C(C)C)ccc1-2 | 48 to 49 °C
Cc1cn(C(C)(C)C(=O)N(C)C)nc1-c1ccccc1 | 107 to 109 °C
C1=CCC2=C(C1)CCc1ccccc1C2CCN1CCCC1 (centres undefined) | 57 to 58.5 °C
CC(=O)N1CCCCc2ccc(/C=C/CN(C)C)cc21 | 87 to 88 °C
CC1CC(N)=NN1c1ccc(Cl)cc1Cl (centres undefined) | 109 to 111 °C
Cc1oc(-c2ccccc2)nc1COc1ccc(C(=O)c2ccccc2OCC(=O)O)cc1 | 174 to 175 °C
CCOP(=O)(OCC)C(O)[C@H](CC1CCCCC1)NC(=O)[C@H](CC(C)C)NC(=O)[C@H](Cc1ccccc1)NC(=O)OC(C)(C)C (some centres undefined) | 173 to 175 °C
O=S(=O)(c1ccc(O)cc1)c1ccc(-c2ccccc2)cc1 | 246 to 248 °C
COc1c(C)c(C)c(OC)c(C(O)(c2ccccn2)C(C)C)c1C (centres undefined) | 99 to 100 °C
OCC#Cc1cccc2ccncc12 | 138 to 139 °C
CCCC(=O)C(=O)C(CC1CCCCC1)NC(=O)C(CC(C)C)NC(=O)C(Cc1ccccc1)NC(=O)OC(C)(C)C (centres undefined) | 87 to 92 °C
CN1[C@H]2CC[C@@H]1[C@H](c1nc(-c3ccncc3)no1)[C@@H](c1ccc3c(c1)OCO3)C2 | 110 to 112 °C
COc1ccccc1NC(=O)c1ccncc1 | 79 to 80 °C
CC(=O)c1c(NC(=O)c2ccc(C)cc2)cccc1C(F)(F)F | 171 °C
Cc1c(-c2cc(Cl)cc(Cl)c2)ccc2nc(N)nc(N)c12 | > 250 °C
Nc1nc(Nc2ccccc2)sc1C(=O)c1c(Cl)cccc1Cl | 245 to 246 °C

SMILES | melting point
COc1cc(CBr)c(Br)cc1OCc1ccccc1 | 103 to 105 °C
CC(C)(C)c1cc(OCc2ccccc2C(=O)Nc2nnn[nH]2)cc(C(C)(C)C)c1 | 251 to 254 °C
Fc1cccc(F)c1-c1cccnc1 | 194 to 196 °C
CCN(CC)c1nsc(NC(=O)NC)c1C(N)=O | 195 to 197 °C
Cn1cc(C2=C(c3c4n(c5ccccc35)CCC(N=C=S)C4)C(=O)NC2=O)c2ccccc21 (centres undefined) | 285 to 287 °C
CC(C)c1ccc(C(=O)c2ccc(CC(=O)O)n2C)cc1 | 98 to 101 °C
Cc1nc2cnccc2n1-c1ccccc1 | 134 to 136 °C
CN1CCC(N(C)S(=O)(=O)c2ccc(Nc3nccc(Nc4ccc(F)c(F)c4)n3)cc2)CC1 | 181 to 183 °C
CSc1nn(-c2c(Cl)cc(C(F)(F)F)cc2Cl)c(N)c1C(=O)c1cc(C)ccc1C | 130 to 132 °C
COc1cccc(C(O)CN(C)Cc2sc3c(=O)c(C(=O)NCc4ccc(Cl)cc4)cn(C)c3c2CO)c1 (centres undefined) | 165 to 168 °C
O=C(O)CCC(CCCCNS(=O)(=O)c1ccc(Cl)cc1)CCCn1ccnc1 (centres undefined) | 136 to 138 °C
COCCNC(=O)c1cc(C)nc(-c2cccc3cc(Cc4cccc(C(F)(F)F)c4)sc23)c1 | 115 to 116 °C
COc1nc(C)nc(NC(=O)NS(=O)(=O)c2ccccc2C=CC(F)(F)F)n1 | 154 to 155 °C
CC(=O)NCCc1coc2ccc3c(c12)CCCO3 | 162 °C
C#Cc1cncc(C2CCC(=O)N2C)c1 (centres undefined) | 83 to 84 °C
CCCOc1ccc(S(=O)(=O)CC)cc1-c1nc2c(CC)nn(C[C@@H]3CCCN3C(=O)OC(C)(C)C)c2c(=O)[nH]1 | 170 to 172 °C
CCOC(=O)c1cc2c(cn1)[nH]c1ccc(C(C)O)cc12 (centres undefined) | 125 to 130 °C
N#Cc1cnc2ccc(-n3cccc3C=O)cc2c1Nc1cccc(Br)c1 | 94 to 95 °C
CCOC(=O)c1ccc(NCCCCCCOc2ccccc2)cc1 | 105 to 108 °C

Further lines, results first:

melting point | SMILES
215 °C | CCN1CCC2(CC1)CN=C(c1cc3cccc(N(C)S(=O)(=O)c4cccs4)c3[nH]1)S2
111 to 113 °C | CCOC(=O)Cn1nnc(-c2cccc(OCc3ccc4ccccc4n3)c2)n1
85 to 86 °C | CC1(C)Oc2ccc(C#N)cc2[C@H](N)[C@@H]1O (relative stereo)
161 to 163 °C | CCCCN(Cc1ccc(-c2ccccc2-c2nnn[nH]2)cc1)c1nc(SC)ncc1C(=O)OCC
154 °C | N#Cc1cc([N+](=O)[O-])ccc1Oc1ccc(Cl)cc1Cl
100 to 102 °C | CCOC(=O)C=CN1C(C)(C)CC(OC(=O)CC(=O)OC2CC(C)(C)N(C=CC(=O)OCC)C(C)(C)C2)CC1(C)C
122 to 123 °C | CC(C)c1sc(C(O)(C(F)(F)F)C(F)(F)F)nc1-c1ccc(S(C)(=O)=O)cc1
156 to 158 °C | Cc1ccnc(C(O)c2ccc(N)cc2)c1 (centres undefined)
119 to 121 °C | CCOC(=O)c1c(-c2ccccc2)c2c3ccccc3ccn2c1C
127 to 130 °C | CN1CCN(Cc2ccc(NC(=O)c3cccc4cc(Oc5cc(N)ncn5)ccc34)cc2C(F)(F)F)CC1
175 °C | COc1cccc(C(=O)NCC2CCCCC2)c1NC(=O)N[C@@H](Cc1ccc(NC(=O)c2c(Cl)cccc2Cl)cc1)C(=O)O
136 to 138 °C | CCN(CC)C(=S)SCC(c1cccc2ccccc12)[N+](=O)[O-] (centres undefined)
56 to 58 °C | CC1(C)CC(=O)OC1CC(Cl)(Cl)Cl (centres undefined)
100 to 101 °C | CC(=O)C=Cc1cc2ccccc2o1
55 to 57 °C | CSC(SC)=C(C#N)C(=O)N1CCOCC1
300 °C | N#Cc1c(N2CCN(C(=O)c3cccs3)CC2)c2sccc2n(CC(=O)c2ccccc2)c1=O

melting point | SMILES
102 to 105 °C | CC(=O)c1ccc2c(c1)C(c1ccccn1)CC(C)(C)O2 (centres undefined)
70 to 71 °C | COc1cc(-c2nn(C)c(C(F)(F)F)c2Cl)c(F)cc1Cl
232 to 234 °C | Cc1c(Nc2ncccc2C(=O)O)cccc1C(F)F
265 to 268 °C | CCS(=O)(=O)C(=CNc1ccc(NC=C(S(=O)(=O)CC)S(=O)(=O)CC)cc1)S(=O)(=O)CC
121 to 125 °C | COC(=O)c1ccc(OCCCCCCc2ccc3cc(OCc4ccccc4)c(OCc4ccccc4)cc3c2)cc1
64 to 65 °C | CS(=O)(=O)c1ccc(-n2nc(C(F)(F)F)cc2-c2ccc(Br)cc2)cc1F
136 to 137 °C | CC=COc1cc(N)c(Cl)cc1C(=O)O
180 to 183 °C | CC(C)c1cccc(C(C)C)c1NC(=O)C(c1ccccc1)n1nnc(C(c2ccccc2)c2ccccc2)n1 (centres undefined)
70 °C | CC(=O)OCC1CCc2c(C3=C(c4cn(C)c5ccccc45)C(=O)OC3=O)c3ccccc3n2CC1 (centres undefined)
81 to 82 °C | CCOC(=O)c1ccc(-c2nc(-c3ccccc3)ccc2Cl)cc1
88 to 90 °C | COc1cccc(C=N[C@H](C)c2ccc([N+](=O)[O-])cc2)c1O
105 to 110 °C | O=C(CSc1ccc(Cl)c(Cl)c1)C12CC3CC(CC(C3)C1)C2
198 to 199 °C | CC(O)COc1ccc2c(c1)c(-c1cc3cccnc3[nH]1)cn2C (centres undefined)
91 to 92 °C | O=C(O)CCSC(c1ccccc1CCCCCCCCc1ccccc1)C(O)C(=O)O (centres undefined)
72 to 74 °C | C=C(C)C(OC(=O)Nc1cc(OC(=O)Oc2cc(NC(=O)OC(C(=C)C)C(=O)OC)c(F)cc2Cl)c(Cl)cc1F)C(=O)OC (centres undefined)
